Measurements taken from patent publication US11021493B2, “1,4-thiazine dioxide and 1,2,4-thiadiazine dioxide derivatives as beta-secretase inhibitors and methods of use” (AMGEN INC., priority 2016, dated 2021).

Tests used:
Cathepsin D (CatD) = Cathepsin D (CatD) (Homo sapiens (Human), UniProt P07339); assay: In vitro enzymatic Cathepsin D (CatD) FRET assay; format: biochemical; details: read-out: Cat D Enzyme IC50
BACE1 [1] = target: T1, BACE1 (Homo sapiens (Human), UniProt P56817); assay: In vitro enzymatic BACE1 FRET assay; format: biochemical; details: read-out: BACE1 Enzyme IC50
Target sequence in this assay (P56817 46-501): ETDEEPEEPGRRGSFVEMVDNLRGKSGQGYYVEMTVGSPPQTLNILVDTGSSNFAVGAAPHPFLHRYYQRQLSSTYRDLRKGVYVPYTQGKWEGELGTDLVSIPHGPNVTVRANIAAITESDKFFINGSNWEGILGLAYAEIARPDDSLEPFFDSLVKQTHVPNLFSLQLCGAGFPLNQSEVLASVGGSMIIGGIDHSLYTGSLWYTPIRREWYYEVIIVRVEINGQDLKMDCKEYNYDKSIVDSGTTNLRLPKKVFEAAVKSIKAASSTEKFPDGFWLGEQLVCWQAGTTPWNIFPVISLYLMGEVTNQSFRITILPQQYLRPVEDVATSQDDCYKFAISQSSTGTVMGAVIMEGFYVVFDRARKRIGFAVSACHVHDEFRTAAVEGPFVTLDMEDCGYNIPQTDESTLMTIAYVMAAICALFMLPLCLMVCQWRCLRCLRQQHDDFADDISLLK

BACE1 [2] = target: T1, BACE1; assay: In vitro BACE1 cell-based assay (Aβ40 in conditioned medium of cells stably expressing APP, HTRF); details: Aβ40 in conditioned media after 24 h incubation
Target sequence in this assay (P56817 46-501, species assumed): as the sequence (P56817 46-501) above

human recombinant BACE2 = human recombinant BACE2 (Homo sapiens (Human), UniProt Q9Y5Z0); assay: In vitro enzymatic BACE2 FRET assay; format: biochemical; details: read-out: BACE2 Enzyme IC50
human recombinant BACE2, sequence (Q9Y5Z0 63-518): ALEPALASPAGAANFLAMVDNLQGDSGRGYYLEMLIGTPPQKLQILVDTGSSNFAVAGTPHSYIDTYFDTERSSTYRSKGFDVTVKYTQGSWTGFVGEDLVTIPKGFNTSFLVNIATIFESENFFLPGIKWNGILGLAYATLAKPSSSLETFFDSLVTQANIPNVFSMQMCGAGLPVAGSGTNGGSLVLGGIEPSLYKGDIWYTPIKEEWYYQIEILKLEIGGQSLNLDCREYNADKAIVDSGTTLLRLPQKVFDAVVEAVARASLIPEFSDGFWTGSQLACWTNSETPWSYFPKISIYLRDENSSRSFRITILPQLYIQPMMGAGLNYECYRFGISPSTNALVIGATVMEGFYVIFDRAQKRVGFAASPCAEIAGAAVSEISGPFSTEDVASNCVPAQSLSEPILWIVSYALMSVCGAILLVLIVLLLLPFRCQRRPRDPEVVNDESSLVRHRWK

Cathepsin D (CatD), sequence (P07339 65-412, species assumed): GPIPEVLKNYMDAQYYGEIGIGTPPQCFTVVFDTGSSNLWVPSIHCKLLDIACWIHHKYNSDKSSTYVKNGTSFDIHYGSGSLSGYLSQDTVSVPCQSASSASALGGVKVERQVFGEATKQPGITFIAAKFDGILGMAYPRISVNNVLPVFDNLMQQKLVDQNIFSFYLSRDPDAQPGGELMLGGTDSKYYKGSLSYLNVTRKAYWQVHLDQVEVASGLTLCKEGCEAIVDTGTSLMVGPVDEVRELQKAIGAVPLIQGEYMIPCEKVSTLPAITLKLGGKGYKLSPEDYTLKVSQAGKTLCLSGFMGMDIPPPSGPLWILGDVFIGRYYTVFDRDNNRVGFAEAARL

SMILES: CC#CCOc1cnc(/C(F)=C/c2ccc(F)c([C@@]3(C)N=C(N)[C@@]4(CF)CC[C@@H]3S4(=O)=O)c2)cn1 [Example 137, (1R,4R,5S)-2-amino-4-(5-((Z)-2-(5-(but-2-yn-1-yloxy)pyrazin-2-yl)-2-fluorovinyl)-2-fluorophenyl)-1-(fluoromethyl)-4-methyl-8-thia-3-azabicyclo[3.2.1]oct-2-ene 8,8-dioxide]
- IC50 (Cathepsin D (CatD)): 65300 nM
- IC50 (BACE1 [1]): 1 nM
- IC50 (BACE1 [2]): 4 nM
- IC50 (human recombinant BACE2): 44 nM

SMILES: C#CCOc1cnc(/C(F)=C/c2ccc(F)c([C@@]3(C)N=C(N)N(C)S(=O)(=O)C34CC4)c2)cn1 [Example 138, (8R)-8-(2-fluoro-5-((Z)-2-fluoro-2-(5-(2-propyn-1-yloxy)-2-pyrazinyl)ethenyl)phenyl)-5,8-dimethyl-4-thia-5,7-diazaspiro[2.5]oct-6-en-6-amine 4,4-dioxide]
- IC50 (Cathepsin D (CatD)): 125000 nM
- IC50 (BACE1 [1]): 16 nM
- IC50 (BACE1 [2]): 78 nM
- IC50 (human recombinant BACE2): 622 nM

SMILES: CN1C(N)=N[C@](C)(c2cc(/C=C(\F)c3cnc(Cl)cn3)ccc2F)C2(CC2)S1(=O)=O [Example 139, (8R)-8-(5-((Z)-2-(5-chloro-2-pyrazinyl)-2-fluoroethenyl)-2-fluorophenyl)-5,8-dimethyl-4-thia-5,7-diazaspiro[2.5]oct-6-en-6-amine 4,4-dioxide]
- IC50 (Cathepsin D (CatD)): 428000 nM
- IC50 (BACE1 [1]): 49 nM
- IC50 (BACE1 [2]): 198 nM
- IC50 (human recombinant BACE2): 70 nM

SMILES: CC1(C)C(N)=N[C@](C)(c2cc(/C=C(\F)c3cnc(OCC(F)(F)C(F)F)cn3)ccc2F)CS1(=O)=O [Example 141, (R,Z)-5-amino-3-(2-fluoro-5-(2-fluoro-2-(5-(2,2,3,3-tetrafluoropropoxy)pyrazin-2-yl)vinyl)phenyl)-3,6,6-trimethyl-3,6-dihydro-2H-1,4-thiazine 1,1-dioxide]
- IC50 (Cathepsin D (CatD)): 96200 nM
- IC50 (BACE1 [1]): 55 nM
- IC50 (BACE1 [2]): 229 nM
- IC50 (human recombinant BACE2): 330 nM

SMILES: CC1(C)C(N)=N[C@](C)(c2cc(/C=C(\F)c3cnc(OCCC(F)(F)F)cn3)ccc2F)CS1(=O)=O [Example 142, (R,Z)-5-amino-3-(2-fluoro-5-(2-fluoro-2-(5-(3,3,3-trifluoropropoxy)pyrazin-2-yl)vinyl)phenyl)-3,6,6-trimethyl-3,6-dihydro-2H-1,4-thiazine 1,1-dioxide]
- IC50 (Cathepsin D (CatD)): 90500 nM
- IC50 (BACE1 [1]): 193 nM
- IC50 (BACE1 [2]): 739 nM
- IC50 (human recombinant BACE2): 425 nM

SMILES: CN1C(N)=N[C@](C)(c2cc(/C=C(\F)c3cnc(OCC4CC4)cn3)ccc2F)CS1(=O)=O [Example 143, (R,Z)-3-amino-5-(5-(2-(5-(cyclopropylmethoxy)pyrazin-2-yl)-2-fluorovinyl)-2-fluorophenyl)-2,5-dimethyl-5,6-dihydro-2H-1,2,4-thiadiazine 1,1-dioxide]
- IC50 (Cathepsin D (CatD)): 30500 nM
- IC50 (BACE1 [1]): 44 nM
- IC50 (BACE1 [2]): 380 nM
- IC50 (human recombinant BACE2): 222 nM

SMILES: CC1(C)C(N)=N[C@](C)(c2cc(/C=C(\F)c3cnc(OCC4CCCC4)cn3)ccc2F)CS1(=O)=O [Example 144, (R,Z)-5-amino-3-(5-(2-(5-(cyclopentylmethoxy)pyrazin-2-yl)-2-fluorovinyl)-2-fluorophenyl)-3,6,6-trimethyl-3,6-dihydro-2H-1,4-thiazine 1,1-dioxide]
- IC50 (Cathepsin D (CatD)): 17000 nM
- IC50 (BACE1 [1]): 30 nM
- IC50 (BACE1 [2]): 1070 nM
- IC50 (human recombinant BACE2): 143 nM

SMILES: CC1(C)C(N)=N[C@](C)(c2cc(/C=C(\F)c3cnc(OCC4CCC4)cn3)ccc2F)CS1(=O)=O [Example 145, (R,Z)-5-amino-3-(5-(2-(5-(cyclobutylmethoxy)pyrazin-2-yl)-2-fluorovinyl)-2-fluorophenyl)-3,6,6-trimethyl-3,6-dihydro-2H-1,4-thiazine 1,1-dioxide]
- IC50 (Cathepsin D (CatD)): 27500 nM
- IC50 (BACE1 [1]): 58 nM
- IC50 (BACE1 [2]): 518 nM
- IC50 (human recombinant BACE2): 107 nM

SMILES: CN1C(N)=N[C@](C)(c2cc(/C=C(\F)c3cnc(C#N)cn3)ccc2F)C2(CC2)S1(=O)=O [Example 147, (R,Z)-5-(2-(3-(6-amino-5,8-dimethyl-4,4-dioxido-4-thia-5,7-diazaspiro[2.5]oct-6-en-8-yl)-4-fluorophenyl)-1-fluorovinyl)pyrazine-2-carbonitrile]
- IC50 (Cathepsin D (CatD)): 41100 nM
- IC50 (BACE1 [1]): 6 nM
- IC50 (BACE1 [2]): 15 nM
- IC50 (human recombinant BACE2): 184 nM

SMILES: CN1C(N)=N[C@](C)(c2cc(/C=C(\F)c3cnc(OCC(F)(F)C(F)F)cn3)ccc2F)CS1(=O)=O [Example 148, (R,Z)-3-amino-5-(2-fluoro-5-(2-fluoro-2-(5-(2,2,3,3-tetrafluoropropoxy)pyrazin-2-yl)vinyl)phenyl)-2,5-dimethyl-5,6-dihydro-2H-1,2,4-thiadiazine 1,1-dioxide]
- IC50 (Cathepsin D (CatD)): 25300 nM
- IC50 (BACE1 [1]): 18 nM
- IC50 (BACE1 [2]): 88 nM
- IC50 (human recombinant BACE2): 217 nM

SMILES: C#CCOc1cnc(/C(F)=C/c2ccc(F)c([C@]3(C)CS(=O)(=O)C4(CCC4)C(N)=N3)c2)cn1 [Example 149, (R,Z)-9-amino-7-(2-fluoro-5-(2-fluoro-2-(5-(prop-2-yn-1-yloxy)pyrazin-2-yl)vinyl)phenyl)-7-methyl-5-thia-8-azaspiro[3.5]non-8-ene 5,5-dioxide]
- IC50 (Cathepsin D (CatD)): 110000 nM
- IC50 (BACE1 [1]): 2 nM
- IC50 (BACE1 [2]): 3 nM
- IC50 (human recombinant BACE2): 51 nM

SMILES: CC1(C)C(N)=N[C@](C)(c2cc(/C=C(\F)c3cnc(OCC4CCCCC4)cn3)ccc2F)CS1(=O)=O [Example 150, (R,Z)-5-amino-3-(5-(2-(5-(cyclohexylmethoxy)pyrazin-2-yl)-2-fluorovinyl)-2-fluorophenyl)-3,6,6-trimethyl-3,6-dihydro-2H-1,4-thiazine 1,1-dioxide]
- IC50 (Cathepsin D (CatD)): 13800 nM
- IC50 (BACE1 [1]): 46 nM
- IC50 (BACE1 [2]): 1620 nM
- IC50 (human recombinant BACE2): 155 nM

SMILES: CN1C(N)=N[C@](C)(c2cc(/C=C(/F)c3ccc(Cl)cn3)cc(F)c2F)CS1(=O)=O [Example 151, (R,E)-3-amino-5-(5-(2-(5-chloropyridin-2-yl)-2-fluorovinyl)-2,3-difluorophenyl)-2,5-dimethyl-5,6-dihydro-2H-1,2,4-thiadiazine 1,1-dioxide]
- IC50 (Cathepsin D (CatD)): 40900 nM
- IC50 (BACE1 [1]): 240 nM
- IC50 (BACE1 [2]): 1420 nM
- IC50 (human recombinant BACE2): 121 nM

SMILES: CN1C(N)=N[C@](C)(c2cc(/C=C(\F)c3ccc(Cl)cn3)cc(F)c2F)CS1(=O)=O [Example 152, (R,Z)-3-amino-5-(5-(2-(5-chloropyridin-2-yl)-2-fluorovinyl)-2,3-difluorophenyl)-2,5-dimethyl-5,6-dihydro-2H-1,2,4-thiadiazine 1,1-dioxide]
- IC50 (Cathepsin D (CatD)): 48800 nM
- IC50 (BACE1 [1]): 15 nM
- IC50 (BACE1 [2]): 47 nM
- IC50 (human recombinant BACE2): 6 nM

SMILES: CC(C)(C#N)COc1cnc(/C(F)=C/c2ccc(F)c([C@]3(C)CS(=O)(=O)C(C)(C)C(N)=N3)c2)cn1 [Example 153, (R,Z)-3-((5-(2-(3-(5-amino-3,6,6-trimethyl-1,1-dioxido-3,6-dihydro-2H-1,4-thiazin-3-yl)-4-fluorophenyl)-1-fluorovinyl)pyrazin-2-yl)oxy)-2,2-dimethylpropanenitrile]
- IC50 (Cathepsin D (CatD)): 249000 nM
- IC50 (BACE1 [1]): 636 nM
- IC50 (BACE1 [2]): 2180 nM
- IC50 (human recombinant BACE2): 1060 nM

SMILES: CC#CCOc1cnc(/C(F)=C/c2ccc(F)c([C@]3(C)CS(=O)(=O)C(C)(C)C(N)=N3)c2)cn1 [Example 154, (R,Z)-5-amino-3-(5-(2-(5-(but-2-yn-1-yloxy)pyrazin-2-yl)-2-fluorovinyl)-2-fluorophenyl)-3,6,6-trimethyl-3,6-dihydro-2H-1,4-thiazine 1,1-dioxide]
- IC50 (Cathepsin D (CatD)): 109000 nM
- IC50 (BACE1 [1]): 1 nM
- IC50 (BACE1 [2]): 2 nM
- IC50 (human recombinant BACE2): 34 nM

SMILES: CC1(C)C(N)=N[C@](C)(c2cc(/C=C(\F)c3cnc(OCCn4ccnc4)cn3)ccc2F)CS1(=O)=O [Example 155, (R,Z)-3-(5-(2-(5-(2-(1H-imidazol-1-yl)ethoxy)pyrazin-2-yl)-2-fluorovinyl)-2-fluorophenyl)-5-amino-3,6,6-trimethyl-3,6-dihydro-2H-1,4-thiazine 1,1-dioxide]
- IC50 (Cathepsin D (CatD)): 440000 nM
- IC50 (BACE1 [1]): 5140 nM
- IC50 (BACE1 [2]): 985 nM
- IC50 (human recombinant BACE2): 2390 nM

SMILES: CC1(C)C(N)=N[C@](C)(c2cc(/C=C(\F)c3cnc(OCCn4cc(Br)cn4)cn3)ccc2F)CS1(=O)=O [Example 156, (R,Z)-5-amino-3-(5-(2-(5-(2-(4-bromo-1H-pyrazol-1-yl)ethoxy)pyrazin-2-yl)-2-fluorovinyl)-2-fluorophenyl)-3,6,6-trimethyl-3,6-dihydro-2H-1,4-thiazine 1,1-dioxide]
- IC50 (Cathepsin D (CatD)): 90500 nM
- IC50 (BACE1 [1]): 96 nM
- IC50 (BACE1 [2]): 1320 nM
- IC50 (human recombinant BACE2): 671 nM

SMILES: CC1(C)C(N)=N[C@](C)(c2cc(/C=C(\F)c3cnc(OCCn4cccn4)cn3)ccc2F)CS1(=O)=O [Example 157, (R,Z)-3-(5-(2-(5-(2-(1H-pyrazol-1-yl)ethoxy)pyrazin-2-yl)-2-fluorovinyl)-2-fluorophenyl)-5-amino-3,6,6-trimethyl-3,6-dihydro-2H-1,4-thiazine 1,1-dioxide]
- IC50 (Cathepsin D (CatD)): 57500 nM
- IC50 (BACE1 [1]): 187 nM
- IC50 (BACE1 [2]): 181 nM
- IC50 (human recombinant BACE2): 478 nM

SMILES: Cc1noc(COc2cnc(/C(F)=C/c3ccc(F)c([C@@]4(C)N=C(N)N(C)S(=O)(=O)C45CC5)c3)cn2)n1 [Example 161, (8R)-8-(2-fluoro-5-((Z)-2-fluoro-2-(5-((3-methyl-1,2,4-oxadiazol-5-yl)methoxy)-2-pyrazinyl)ethenyl)phenyl)-5,8-dimethyl-4-thia-5,7-diazaspiro[2.5]oct-6-en-6-amine 4,4-dioxide]
- IC50 (Cathepsin D (CatD)): 59600 nM
- IC50 (BACE1 [1]): 80 nM
- IC50 (BACE1 [2]): 48 nM
- IC50 (human recombinant BACE2): 2630 nM

SMILES: Cc1cc(COc2cnc(/C(F)=C/c3ccc(F)c([C@@]4(C)N=C(N)N(C)S(=O)(=O)C45CC5)c3)cn2)no1 [Example 162, (8R)-8-(2-fluoro-5-((Z)-2-fluoro-2-(5-((5-methyl-3-isoxazolyl)methoxy)-2-pyrazinyl)ethenyl)phenyl)-5,8-dimethyl-4-thia-5,7-diazaspiro[2.5]oct-6-en-6-amine 4,4-dioxide]
- IC50 (Cathepsin D (CatD)): 15700 nM
- IC50 (BACE1 [1]): 65 nM
- IC50 (BACE1 [2]): 168 nM
- IC50 (human recombinant BACE2): 732 nM
